Measurements taken from patent publication US11524938B2, “Aromatic sulfonamide derivatives” (Bayer Pharma Aktiengesellschaft, priority 2016, dated 2022).

Legend:
Sprague Dawley rats = assay: CFA-Induced Mechanical Hyperalgesia Model in Rat; type: in vivo; settings: 3 oral doses, 26 h after CFA, vs vehicle
Protocol: Male Sprague Dawley rats were used. Mechanical hyperalgesia was induced by injecting […] of Complete Freund's Adjuvant (CFA) into the plantar surface of the left hind paw. Mechanical hyperalgesia was measured using the Pressure Application Measurement apparatus (Ugo Basile, Gemonio, Italy). Briefly, a linearly increasing pressure was applied to an area of approximately 50 mm^2 of the plantar side of the hind paw, until a behavioural response (paw withdrawal) was observed or until the pressure reached 1000 gf. The pressure at which the behavioural response occurred was recorded as the Paw Withdrawal Threshold (PWT). Both CFA-injected and contralateral PWTs were determined for each rat, in each treatment group and at each time point of the studies. Rats received 3 oral doses of test compound at approximately 12 hours interval starting 1 hour prior to CFA injection. Mechanical hyperalgesia testing was performed 2 hours before CFA injection and 2 hours after the last dosing (FIGS. 4a and 4b).
FIGS. 4a and 4b as nonbinding explanatory examples of compounds according to the invention represent Paw Withdrawal Threshold in gramm (y-axis) of the ipsilateral paw of all tested animals before CFA treatment and 26 h after CFA treatment and vehicle or Example 39 (FIG. 4a) or 326 (FIG. 4b) treatment. […]

rat P2X4 = target: T1, rat P2X4 (Rattus norvegicus, UniProt P51577); assay: FLIPR assay, rat P2X4 1321N1 Astrocytoma cells; type: cell-based; settings: agonist Mg-ATP 5 μM (EC80)
T1 sequence (P51577 1-388): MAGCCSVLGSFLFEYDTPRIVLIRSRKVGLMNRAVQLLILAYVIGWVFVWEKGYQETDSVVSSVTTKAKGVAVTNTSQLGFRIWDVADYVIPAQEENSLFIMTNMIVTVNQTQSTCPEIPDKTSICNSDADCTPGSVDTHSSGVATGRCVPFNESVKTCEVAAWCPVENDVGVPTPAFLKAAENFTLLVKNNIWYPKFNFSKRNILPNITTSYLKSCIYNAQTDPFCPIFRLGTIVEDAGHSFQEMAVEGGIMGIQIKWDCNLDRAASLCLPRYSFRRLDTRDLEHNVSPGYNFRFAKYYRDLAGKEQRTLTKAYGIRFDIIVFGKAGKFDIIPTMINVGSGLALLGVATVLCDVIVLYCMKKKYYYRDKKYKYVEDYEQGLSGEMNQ
Protocol: (§1) 1321N1 Astrocytoma cells stably expressing human P2X4 or rat P2X4 or mouse P2X4 were plated in Collagen I TC-treated microplate at a seeding density of 10000 cells/well and incubated overnight. P2X4 function was assessed by measuring intracellular calcium changes using the calcium-chelating dye Fluo8-AM (Molecular Devices) on a fluorescent imaging plate reader (FLEX/FLIPR station; Molecular Devices). On the day of the assay, the medium was removed and the cells were incubated for 30 min at 37 °C and 5% CO2 in 30 μL of dye buffer (Hank's balanced salt solution, 10 mM HEPES, 1.8 mM CaCl2, 1 mM MgCl2, 2 mM probenecid, 5 mM D-glucose monohydrate, 5 μM Fluo8-AM, pH=7.4). Compounds diluted in probenecid buffer (Hank's balanced salt solution, 10 mM HEPES, 1.8 mM CaCl2, 1 mM MgCl2, 2 mM probenecid, 5 mM D-glucose monohydrate, pH=7.4) were added in a volume of 10 μL and allowed to incubate for 30 min at room temperature. The final assay DMSO concentration was 0.25%. The agonist, Mg-ATP (Sigma), was added in a volume of 10 μL at a concentration representing the EC80 value. EC80 was determined to be 0.5 μM for human and mouse P2X4 and 5 μM for rat P2X4. The fluorescence was measured for an interval of 120 sec at 2 sec intervals. The excitation and emission wavelengths used to monitor fluorescence were 470-495 nm and 515-575 nm, respectively. The data was analyzed based on the increase in peak relative fluorescence units (RFU) compared to the basal fluorescence and the data was normalized to the agonist control. The compounds were tested in triplicates per plate and mean values were plotted in Excel XLFit to determine IC50 values, percentage of maximal inhibition and the Hill coefficients.

human P2X4 = target: T2, human P2X4 (Homo sapiens, UniProt Q99571); assay: FLIPR assay, human P2X4 1321N1 Astrocytoma cells; type: cell-based; settings: agonist Mg-ATP 0.5 μM (EC80)
T2 sequence (Q99571 1-388): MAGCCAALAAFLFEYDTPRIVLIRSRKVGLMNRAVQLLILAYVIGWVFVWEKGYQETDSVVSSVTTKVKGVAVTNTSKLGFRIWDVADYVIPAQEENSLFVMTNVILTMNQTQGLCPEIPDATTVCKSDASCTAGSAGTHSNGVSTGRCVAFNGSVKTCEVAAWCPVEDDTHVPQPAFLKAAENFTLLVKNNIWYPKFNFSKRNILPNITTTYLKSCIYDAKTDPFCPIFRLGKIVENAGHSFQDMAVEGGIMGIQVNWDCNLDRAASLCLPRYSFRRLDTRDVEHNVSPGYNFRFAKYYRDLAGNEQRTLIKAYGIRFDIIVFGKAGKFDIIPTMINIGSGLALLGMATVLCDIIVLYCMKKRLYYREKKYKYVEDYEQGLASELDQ
Protocol: as §1

mouse P2X4 = target: T3, mouse P2X4 (Mus musculus, UniProt Q9JJX6); assay: FLIPR assay, mouse P2X4 1321N1 Astrocytoma cells; type: cell-based; settings: agonist Mg-ATP 0.5 μM (EC80)
T3 sequence (Q9JJX6 1-388): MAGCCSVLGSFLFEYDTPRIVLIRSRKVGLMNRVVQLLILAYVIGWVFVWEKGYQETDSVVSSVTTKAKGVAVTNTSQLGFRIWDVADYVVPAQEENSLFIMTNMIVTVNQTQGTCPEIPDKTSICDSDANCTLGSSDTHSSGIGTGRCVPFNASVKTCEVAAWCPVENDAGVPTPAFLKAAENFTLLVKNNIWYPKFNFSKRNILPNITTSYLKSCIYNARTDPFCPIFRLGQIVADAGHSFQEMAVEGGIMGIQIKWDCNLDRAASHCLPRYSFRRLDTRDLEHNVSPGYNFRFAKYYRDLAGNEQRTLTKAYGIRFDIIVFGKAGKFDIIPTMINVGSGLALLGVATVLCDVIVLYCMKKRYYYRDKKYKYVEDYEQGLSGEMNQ
Protocol: as §1

| SMILES | Paw Withdrawal Threshold (PWT), ipsilateral paw (Sprague Dawley rats) | Rat P2X4 1321N1 Astrocytoma Cells (FLIPR Assay) avg Efficacy [%] (rat P2X4) | Human P2X4 1321N1 Astrocytoma Cells (FLIPR Assay) avg Efficacy [%] (human P2X4) | Mouse P2X4 1321N1 Astrocytoma Cells (FLIPR Assay) avg Efficacy [%] (mouse P2X4) |
| --- | --- | --- | --- | --- |
| N#Cc1cnn(-c2ccc(NC(=O)Cc3ccccc3Cl)cc2S(N)(=O)=O)c1 [Example 39, 2-(2-Chlorophenyl)-N-[4-(4-cyano-1H-pyrazol-1-yl)-3-sulfamoylphenyl]acetamide] | significantly increased PWT | 87 | 83 | 87 |
| NS(=O)(=O)c1cc(NC(=O)Cc2ccccc2Cl)ccc1-c1cnn(C(F)F)c1 [Example 326, 2-(2-Chlorophenyl)-N-{4-[1-(difluoromethyl)-1H-pyrazol-4-yl]-3-sulfamoylphenyl}acetamide] | significantly increased PWT | 99 | 80 | 87 |
